Source: patent US6313179A, “Treatment of hyperproliferative skin disorders with C18 to C20 aliphatic alcohols” (Avanir Pharmaceuticals, priority 1998, dated 2001)

Experiments:
keloid scarring = assay: Treatment of keloid scar formation with n-docosanol cream, case report (Example 4); format: in vivo, Human
Text: The patient presented with a one year history of progressive bilateral facial keloid scarring. The precise cause of injury is unknown, but appears to have been initiated as a result of work-relatedexposure to some aerosolized irritant at a high rise building construction site. During the time of exposure, the patient was working in an area in which noxious fumes were known to exist, and they were wearing a filtration face mask for protection against inhalation exposure. Since the resulting wounds occurred in a pattern which appeared to outline the edges of the protective face mask, the injury may reflect some type of chemical burn resulting from concentration of aerosolized irritants with perspiration at the edge of the face mask.
During the ensuing year after onset of this process, the patient was seen on several occasions in the dermatology division of a major local hospital and attempts were made to arrest the process by intradermal steroid injections at the affected sites. This treatment approach was ineffective. When the patient was first seen by the inventors, they had extensive and disfiguring bilateral scars on the face and a large ulcerated lesion at the lower end of the process on the right side of the face. There was keloid scarring on both the right and left sides of the face manifested as typical "ropey and cord-like" tissue deposition and depigmentation. The right side of the face was noticeably swollen presumably as a result of the active ulceration process at the lower end of the lesions. The patient complained of pain along both areas of scarring, particularly at the more distal ends of the lesions. They admitted to social withdrawal as a result of embarrassment about their appearance and extreme frustration about the apparent futility of obtaining any help to arrest or reverse the process.
After thoroughly explaining the experimental aspects of the therapeutic regimen, the patient volunteered to enter a study in which cream containing either 15% or 10% n-docosanol as active ingredient was to be applied to the affected areas. These topical cream formulations are described in U.S. Pat. No. 5,534,554, the entire contents of which are incorporated by reference. Initially, applications of cream containing 15% n-docosanol were made three times daily. This cream formulation contained, in addition to 15% n-docosanol, […], 5.0% sucrose cocoate, 8.0% mineral oil NF, 5.0% propylene glycol USP, 2-ethyl-1,3-hexanediol and 58.3% purified water (all weight percent). After one month on this regimen, the patient was changed to cream containing 10% n-docosanol and the application frequency was reduced to two times daily, after showering in the morning and just before bed in the evening. This cream composition contained, in addition to 10% n-docosanol,5.0% sucrose stearates, 8.0% mineral oil NF, 5.0% propylene glycol USP, 2.7% benzyl alcohol NF and 69.3% purified water.

herpes simplex virus = conditions: suspended in a surfactant; cell culture assays; cited from earlier work
[1] = 15% cream three times daily, within 48 hours
[2] = 15% cream, by the end of the second week, patient perception

CCCCCCCCCCCCCCCCCCCCCCO [n-docosanol]
extent of elevation of the keloid scarring (keloid scarring; 15% cream one month, then 10% cream twice daily, three months): clear reduction in the extent of elevation of the keloid scarring
pain around the lesions (keloid scarring; 15% cream three times daily, almost immediately after onset of therapy): significant diminution in pain
granulation within the ulcerated lesion (keloid scarring; [1]): onset of granulation
swelling on the right side of the face (keloid scarring; [1]): significant reduction in swelling
suppleness of the overlying dermis (keloid scarring; [2]): greater suppleness of the overlying dermis
tightness and thickness of the keloids (keloid scarring; [2]): diminution in tightness and thickness of the keloids
pigmentation in the affected areas (keloid scarring; 15% then 10% cream, one year): almost complete return to normal pigmentation
ropey and cord-like elevations (keloid scarring; 15% then 10% cream, one year): a flattening of the previously ropey and cord-like elevations
scar tissue (keloid scarring; 15% then 10% cream, one year): significant reduction of scar tissue
skin pigmentation (keloid scarring; 15% then 10% cream, three months): considerable improvement in skin pigmentation
scar defect at the site of the healed ulcerated lesion (keloid scarring; 15% then 10% cream, three months, compared to right temple line scar): much smaller scar defect
adverse reactions (keloid scarring; during the course of treatment): no adverse reactions
keloid formation in a patient (in words) (keloid scarring; patient for whom other treatments had not been successful): significantly reduced hyperproliferative keloid formation
antiviral activity (herpes simplex virus): potent antiviral activity
